Assay results as given in patent US11111233B2, “Amino pyrimidine compound for inhibiting protein tyrosine kinase activity” (Shenzhen TargetRx, Inc., priority 2016, dated 2021).
Like-named read-outs stand apart in the source and are kept apart here.

Experiments:
[1] = test system: Skin cancer cell line A431 (WT); assay: Cytotoxicity test (MTS cell viability), A431; format: cell-based
WT EGFR = WT EGFR (Homo sapiens (Human), UniProt P00533); assay: Kinase inhibition assay (HTRF), WT EGFR; format: biochemical; conditions: HTRF Kinase TK kit, 10 min pre-incubation, 20 min reaction
WT EGFR, sequence (P00533 25-1210): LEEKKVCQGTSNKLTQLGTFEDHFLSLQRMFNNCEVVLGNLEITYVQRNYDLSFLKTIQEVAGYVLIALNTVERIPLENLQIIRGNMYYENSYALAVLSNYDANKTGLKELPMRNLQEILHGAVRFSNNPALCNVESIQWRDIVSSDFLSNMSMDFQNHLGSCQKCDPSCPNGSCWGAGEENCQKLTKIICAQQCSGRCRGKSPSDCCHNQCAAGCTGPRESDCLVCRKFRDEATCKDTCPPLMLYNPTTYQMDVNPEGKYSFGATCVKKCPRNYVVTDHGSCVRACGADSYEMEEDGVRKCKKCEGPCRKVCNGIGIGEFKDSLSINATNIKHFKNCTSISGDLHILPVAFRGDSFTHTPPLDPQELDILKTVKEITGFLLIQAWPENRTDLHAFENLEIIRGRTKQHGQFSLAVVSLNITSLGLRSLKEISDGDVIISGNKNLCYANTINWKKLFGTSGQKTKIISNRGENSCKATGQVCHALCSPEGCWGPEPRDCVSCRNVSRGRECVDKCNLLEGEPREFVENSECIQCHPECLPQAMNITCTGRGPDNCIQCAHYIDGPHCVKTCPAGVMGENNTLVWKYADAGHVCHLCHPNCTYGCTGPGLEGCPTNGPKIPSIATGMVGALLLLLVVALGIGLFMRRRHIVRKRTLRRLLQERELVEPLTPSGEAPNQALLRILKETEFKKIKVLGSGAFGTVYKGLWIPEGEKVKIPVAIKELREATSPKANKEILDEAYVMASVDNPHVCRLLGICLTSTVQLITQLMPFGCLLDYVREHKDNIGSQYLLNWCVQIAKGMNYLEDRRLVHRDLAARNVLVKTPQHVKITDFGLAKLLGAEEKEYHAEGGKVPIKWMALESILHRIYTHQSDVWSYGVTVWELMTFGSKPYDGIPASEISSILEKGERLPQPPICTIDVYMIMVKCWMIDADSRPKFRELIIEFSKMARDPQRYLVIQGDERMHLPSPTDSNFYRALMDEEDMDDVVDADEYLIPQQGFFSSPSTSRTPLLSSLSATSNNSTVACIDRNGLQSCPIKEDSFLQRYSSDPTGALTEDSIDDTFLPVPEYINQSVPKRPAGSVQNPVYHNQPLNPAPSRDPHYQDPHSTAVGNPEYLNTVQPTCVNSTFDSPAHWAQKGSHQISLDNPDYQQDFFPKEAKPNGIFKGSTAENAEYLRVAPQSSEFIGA

EGFR [L858R/T790M] = EGFR [L858R/T790M] (Homo sapiens (Human), UniProt P00533, L858R/T790M); assay: Kinase inhibition assay (HTRF), EGFR [L858R/T790M]; format: biochemical; conditions: HTRF Kinase TK kit, 10 min pre-incubation, 20 min reaction; read-out: EGFR(L858R/T790M) IC50
EGFR [L858R/T790M], sequence (P00533 25-1210 T790M/L858R): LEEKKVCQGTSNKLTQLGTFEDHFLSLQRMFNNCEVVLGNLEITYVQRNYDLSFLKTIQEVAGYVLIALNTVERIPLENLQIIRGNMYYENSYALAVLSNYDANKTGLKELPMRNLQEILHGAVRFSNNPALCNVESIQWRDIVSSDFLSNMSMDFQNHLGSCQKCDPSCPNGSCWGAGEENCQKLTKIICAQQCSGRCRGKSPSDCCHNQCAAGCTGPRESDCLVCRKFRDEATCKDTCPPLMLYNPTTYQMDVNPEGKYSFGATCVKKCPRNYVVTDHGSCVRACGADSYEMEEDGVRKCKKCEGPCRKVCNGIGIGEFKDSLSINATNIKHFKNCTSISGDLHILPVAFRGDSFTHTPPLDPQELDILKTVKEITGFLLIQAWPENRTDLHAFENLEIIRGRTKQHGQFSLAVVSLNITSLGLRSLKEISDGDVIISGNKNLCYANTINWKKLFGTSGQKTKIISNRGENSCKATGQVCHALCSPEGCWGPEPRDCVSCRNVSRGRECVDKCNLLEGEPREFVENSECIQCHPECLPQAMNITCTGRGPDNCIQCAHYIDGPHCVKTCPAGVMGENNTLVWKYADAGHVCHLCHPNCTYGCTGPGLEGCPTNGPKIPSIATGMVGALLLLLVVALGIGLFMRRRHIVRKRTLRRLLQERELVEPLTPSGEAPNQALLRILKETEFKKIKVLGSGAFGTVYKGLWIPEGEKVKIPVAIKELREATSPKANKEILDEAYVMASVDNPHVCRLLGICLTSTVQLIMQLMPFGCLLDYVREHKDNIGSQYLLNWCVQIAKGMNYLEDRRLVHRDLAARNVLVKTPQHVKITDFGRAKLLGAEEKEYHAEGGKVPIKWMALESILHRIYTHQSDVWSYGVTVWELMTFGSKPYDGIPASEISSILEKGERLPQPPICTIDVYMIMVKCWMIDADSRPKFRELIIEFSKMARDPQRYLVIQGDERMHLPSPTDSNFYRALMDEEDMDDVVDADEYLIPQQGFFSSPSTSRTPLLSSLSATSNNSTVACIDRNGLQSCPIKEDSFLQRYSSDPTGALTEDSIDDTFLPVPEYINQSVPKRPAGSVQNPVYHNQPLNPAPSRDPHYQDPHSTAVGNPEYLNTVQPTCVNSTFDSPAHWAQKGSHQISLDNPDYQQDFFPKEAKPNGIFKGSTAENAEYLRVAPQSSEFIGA

[2] = test system: lung cancer cells HCC827 (Del19); assay: Cytotoxicity test (MTS cell viability), HCC827; format: cell-based
[3] = Homo sapiens, A-431, MTS, 72 hours, read-out: A431 (WT) IC50
[4] = Homo sapiens, HCC827, 72 h, read-out: HCC827 (Del19) IC50(nM)
[5] = Homo sapiens, HCC827, MTS, 72 hours, read-out: HCC827 (Del19) IC50
[6] = Homo sapiens, A-431, 72 h, read-out: A431 (WT) IC50(nM)

| IC50 (WT EGFR) [nM] | IC50 (EGFR [L858R/T790M]) [nM] | Compound | IC50 [1, 3] [nM] | IC50 [2, 4] [nM] | other results |
| --- | --- | --- | --- | --- | --- |
| 1 to 50 | 1 to 50 | C=CC(=O)Nc1cc(Nc2nccc(-c3ccc4nc(C(F)(F)F)n(C(C)C)c4c3)n2)c(OC)cc1N(C)CCN(C)C [Example 37, N-(2-((2-(dimethylamino)ethyl)(methyl)amino)-5-((4-(1-isopropyl-2-(trifluoromethyl)-1H-benzo[d]imidazole-6-yl)pyrimidin-2-yl)amino)-4-methoxyphenyl)acrylamide] |  |  |  |
| 1 to 50 | < 1 | C=CC(=O)Nc1cc(Nc2nccc(-c3ccc4cnn(C(C)C)c4c3)n2)c(OC)cc1N(C)CCN(C)C [Example 27, N-(2-((2-(dimethylamino)ethyl)(methyl)amino)-5-((4-(1-isopropyl-1H-indazole-6-yl)pyrimidin-2-yl)amino)-4-methoxyphenyl)acrylamide] | 400 to 1000 |  | IC50 [2, 5]: 10 to 100 nM |
| 1 to 50 | 1 to 50 | C=CC(=O)Nc1cc(Nc2nccc(-c3ccc4oc(=O)n(C)c4c3)n2)c(OC)cc1N(C)CCN(C)C [Example 25, N-(2-((2-(dimethylamino)ethyl)(methyl)amino)-4-methoxy-5-((4-(3-methyl-2-oxo-2,3-di hydrobenzo[d]oxazole-5-yl)pyrimidin-2-yl)amino)phenyl)acrylamide] | > 1000 |  | IC50 [2, 5]: 100 to 400 nM |
| 1 to 50 | < 1 | C=CC(=O)Nc1cc(Nc2ncc(C#N)c(-c3cc(F)c4nc(C)n(C(C)C)c4c3)n2)c(OC)cc1N(C)CCN(C)C [Example 18, N-(2-((2-(dimethylamino)ethyl)(methyl)amino)-5-((5-cyano-4-(4-fluoro-1-isopropyl-2-methyl-1H-benzo[d]imidazole-6-yl)pyrimidin-2-yl)amino)-4-methoxyphenyl)acrylamide] |  |  |  |
| > 100 | 50 to 100 | COc1cc(N2CCN(C)CC2)ccc1Nc1ncc(F)c(-c2cc(F)c3nc(C)c(C(C)C)n3c2)n1 [Example 59, 5-fluoro-4-(8-fluoro-3-isopropyl-2-methylimidazo[1,2-a]pyridine-6-yl)-N-(2-methoxy-4-(4-methylpiperazin-1-yl)phenyl)pyrimidin-2-amine] | > 1000 |  | IC50 [2, 5]: > 1000 nM |
| 1 to 50 | < 1 | C=CC(=O)Nc1cc(Nc2nccc(-c3cc4c5c(c3)nc(OC)n5CCC4)n2)c(OC)cc1N(C)CCN(C)C [Example 45, N-(2-((2-(dimethylamino)ethyl)(methyl)amino)-4-methoxy-5-((4-(2-methoxy-5,6-dihydro-4H-imidazo[4,5,1-ij]quinolin-8-yl)pyrimidin-2-yl)amino)phenyl)acrylamide] | 400 to 1000 |  | IC50 [2, 5]: 10 to 100 nM |
| < 1 | < 1 | C=CC(=O)Nc1cc(Nc2nccc(-c3ccc4nn(C)c(C(C)C)c4c3)n2)c(OC)cc1N(C)CCN(C)C [Example 42, N-(2-((2-(dimethylamino)ethyl)(methyl)amino)-5-((4-(3-isopropyl-2-methyl-2H-indazole-5-yl)pyrimidin-2-yl)amino)-4-methoxyphenyl)acrylamide] | 100 to 400 |  | IC50 [2, 5]: < 10 nM |
| 1 to 50 | < 1 | C=CC(=O)Nc1cc(Nc2ncc(F)c(-c3cc(F)c4nc(C)n(C(C)C)c4c3)n2)c(OC)cc1N(C)CCN(C)C [Example 19, N-(2-((2-(dimethylamino)ethyl)(methyl)amino)-5-((5-fluoro-4-(4-fluoro-1-isopropyl-2-methyl-1H-benzo[d]imidazole-6-yl)pyrimidin-2-yl)amino)-4-methoxyphenyl)acrylamide] |  |  |  |
| 1 to 50 | < 1 | C=CC(=O)Nc1cc(Nc2nccc(-c3ccc4ncn(C(C)C)c4c3)n2)c(OC)cc1N(C)CCN(C)C [Example 36, N-(2-((2-(dimethylamino)ethyl)(methyl)amino)-5-((4-(1-isopropyl-1H-benzo[d]imidazole-6-yl)pyrimidin-2-yl)amino)-4-methoxyphenyl)acrylamide] |  |  |  |
|  |  | C=CC(=O)Nc1cc(Nc2nccc(-c3cc(F)c4nc(C)n(C(C)C)c4c3)n2)c(OC)cc1OCCN(C)C [Example 12, N-(2-(2-(dimethylamino)ethyl)(oxy)-5-((4-(4-fluoro-1-isopropyl-2-methyl-1H-benzo[d]imidazole-6-yl)pyrimidin-2-yl)amino)-4-methoxyphenyl)acrylamide] |  | < 10 | IC50 [1, 6]: 100 to 400 nM |
| 1 to 50 | 1 to 50 | C=CC(=O)Nc1cc(Nc2ncc(OC)c(-c3cc(F)c4nc(C)n(C(C)C)c4c3)n2)c(OC)cc1N(C)CCN(C)C [Example 3, N-(2-((2-(dimethylamino)ethyl)(methyl)amino)-5-((5-methoxy-4-(4-fluoro-1-isopropyl-2-methyl-1H-benzo[d]imidazole-6-yl)pyrimidin-2-yl)amino)-4-methoxyphenyl)acrylamide] |  |  |  |
|  |  | C=CC(=O)Nc1cc(Nc2nccc(-c3cc(F)c4oc(C)nc4c3)n2)c(OC)cc1N(C)CCN(C)C [Example 31, N-(2-((2-(dimethylamino)ethyl)(methyl)amino)-5-((4-(7-fluoro-2-methylbenzo[d]oxazole-5-yl)pyrimidin-2-yl)amino)-4-methoxyphenyl)acrylamide] | > 1000 |  |  |
| 1 to 50 | < 1 | C=CC(=O)Nc1cc(Nc2nccc(-c3cc(F)c4nc5n(c4c3)C(C)(C)CC5)n2)c(OC)cc1N(C)CCN(C)C [Example 5, N-(2-((2-(dimethylamino)ethyl)(methyl)amino)-5-((4-(5-fluoro-1,1-dimethyl-2,3-dihydro-1H-benzo[d]imidazole[1,2-a]pyrrol-6-yl)pyrimidin-2-yl)amino)-4-methoxyphenyl)acryl amide] |  |  |  |
|  |  | C=CC(=O)Nc1cc(Nc2nccc(-c3cn(C)c4ccccc34)n2)c(OC)cc1N(C)CCN(C)C [AZD9291, reference compound] |  | 10 to 100 | IC50 [1, 6]: 100 to 400 nM |
| 1 to 50 | < 1 | C=CC(=O)Nc1cc(Nc2ncc(C(F)(F)F)c(-c3cc(F)c4nc(C)n(C(C)C)c4c3)n2)c(OC)cc1N(C)CCN(C)C [Example 4, N-(2-((2-(dimethylamino)ethyl)(methyl)amino)-5-((5-trifluoromethyl-4-(4-fluoro-1-isopropyl-2-methyl-1H-benzo[d]imidazole-6-yl)pyrimidin-2-yl)amino)-4-methoxyphenyl)acrylamide] |  |  |  |
| 1 to 50 |  | C=CC(=O)Nc1cc(Nc2ncc(Cl)c(-c3cc(F)c4nc(C)n(C(C)C)c4c3)n2)c(OC)cc1N(C)CCN(C)C [Example 1, N-(2-((2-(dimethylamino)ethyl)(methyl)amino)-5-((5-chloro-4-(4-fluoro-1-isopropyl-2-methyl-1H-benzo[d]imidazole-6-yl)pyrimidin-2-yl)amino)-4-methoxyphenyl)acrylamide] | > 1000 |  | IC50 [2, 5]: 10 to 100 nM |
|  |  | C=CC(=O)Nc1cc(Nc2nccc(-c3cc(F)c4c(cnn4C)c3)n2)c(OC)cc1N(C)CCN(C)C [Example 39, N-(2-((2-(dimethylamino)ethyl)(methyl)amino)-5-((4-(7-fluoro-1-methyl-indazole-5-yl)pyrimidin-2-yl)amino)-4-methoxyphenyl)acrylamide] |  |  | IC50 [1, 6]: 100 to 400 nM |
|  |  | COc1cc(N2CCN(C)CC2)ccc1Nc1nccc(-c2cc(F)c3nc(C)n(C(C)C)c3c2)n1 [Example 54, 4-(4-fluoro-1-isopropyl-2-methyl-1H-benzo[d]imidazole-6-yl)-N-(2-methoxy-4-(4-methylpiperazin-1-yl)phenyl)pyrimidin-2-amine] | 400 to 1000 |  |  |
|  |  | N-(2-(4-ethoxypiperidin)-1-yl)-5-((4-(4-fluoro-1-isopropyl-2-methyl-1H-benzo[d]imidazole-6-yl)pyrimidin-2-yl)amino)-4-methoxyphenyl)acrylamide [Example 14] |  |  | IC50 ([1]; MTS, 72 hours, read-out: A431 (WT) IC50): > 1000 nM; IC50 ([2]; MTS, 72 hours, read-out: HCC827 (Del19) IC50): 400 to 1000 nM |

| Compound | IC50 (WT EGFR) [nM] | IC50 (EGFR [L858R/T790M]) [nM] | IC50 [1, 3] [nM] | IC50 [2, 4] [nM] | other results |
| --- | --- | --- | --- | --- | --- |
| C=CC(=O)Nc1cc(Nc2nccc(-c3cc(F)c4nc(C)n(C(C)C)c4c3)n2)c(OCC)cc1N(C)CCN(C)C [Example 48, N-(2-((2-(dimethylamino)ethyl)(methyl)amino)-4-ethoxy-5-((4-(4-fluoro-1-isopropyl-2-methyl-1H-benzo[d]imidazole-6-yl)pyrimidin-2-yl)amino)phenyl)acrylamide] | 1 to 50 | < 1 | 400 to 1000 | < 10 |  |
| C=CC(=O)Nc1cc(Nc2nccc(-c3cc(F)c4nc(C)n(C(C)C)c4c3)n2)c(OC)cc1N1CCOCC1 [Example 16] |  | 1 to 50 | > 1000 | 100 to 400 |  |
| C=CC(=O)Nc1cc(Nc2nccc(-c3cc(F)c4nc(C)n(C(C)C)c4c3)n2)c(OC)cc1N1CCC(OC)CC1 [Example 15] |  | 1 to 50 | > 1000 | 100 to 400 |  |
| C=CC(=O)Nc1cc(Nc2nccc(-c3cc(F)c4nc(OC)n(C(C)C)c4c3)n2)c(OC)cc1OCCN(C)C [Example 7] | 1 to 50 |  |  | 10 to 100 | IC50 [1, 6]: > 1000 nM |
| C=CC(=O)Nc1cc(Nc2nccc(-c3cc(F)c4nc(C)n(C(C)C)c4c3)n2)c(OC)cc1SCCN(C)C [Example 11, N-(2-(2-(dimethylamino)ethyl)(thio)-5-((4-(4-fluoro-1-isopropyl-2-methyl-1H-benzo[d]imidazole-6-yl)pyrimidin-2-yl)amino)-4-methoxyphenyl)acrylamide] | 1 to 50 |  |  | 10 to 100 | IC50 [1, 6]: 400 to 1000 nM |
| C=CC(=O)Nc1cc(Nc2nccc(-c3cc(F)c4nc(C)n(C(C)C)c4c3)n2)c(OC(F)F)cc1N(C)CCN(C)C [Example 47] | 1 to 50 |  | 400 to 1000 | < 10 |  |
